Measured values as given in patent US8592431B2, “Fused ring compound and use thereof” (Takeda Pharmaceutical Company Limited, priority 2009, dated 2013).

Biological target: human AT1 receptor (Homo sapiens (Human), UniProt P30556)
Assay: AT1 receptor antagonistic activity: [125I]-angiotensin II binding assay with AT1 membrane
Conditions: 22.5 pM [125I]-angiotensin II, human AT1 receptor-expressing CHO-K1 membrane, 1 hr room temperature
Protocol: Evaluation of AT1 Receptor Antagonistic Activity
(1) Preparation of Human AT1 Receptor-Expressing CHO-K1 Cellular Membrane Fraction
CHO-K1 cell (RIKEN, Japan) capable of stable expression of human AT1 receptor was cultured, recovered, suspended in homogenize buffer (10 mM NaHCO3 (pH 7.4), 5 mM EDTA, 1× Complete EDTA free) [manufactured by Roche, Switzerland], and homogenized. The homogenate was centrifuged at low-speed (900×g, 10 min, 4° C.), and the supernatant was recovered and ultracentrifuged (90,000×g, 1 hr, 4° C.). The supernatant was discarded, and the pellets were resuspended in suspension buffer (50 mM Tris (pH 7.4), 1 mM EDTA, 1× Complete EDTA free).
(2) Evaluation of AT1 Receptor Antagonistic Activity
(9 μg) in the presence of AT1 membrane and test compound in 100 μL (total reaction volume) of reaction buffer (50 mM Tris (pH 7.4), 10 mM MgCl2 supplemented or not supplemented with 0.3 mg/mL fatty acid-free bovine serum albumin [manufactured by Wako Pure Chemical Industries, Ltd., Japan]). The reaction mixture was incubated in 96 well polypropylene plate for 1 hr at room temperature, and the reaction was quenched by rapid filtration (96 well cell harvester) through a GF/C filter treated with wash buffer (50 mM Tris (pH 7.4)). Subsequently, the filter was washed 5 times with 0.3 mL of ice-cooled wash buffer. […] Total binding was measured in the presence of 1% DMSO and nonspecific binding was measured in the presence of 1 μM Candesartan.

human AT1 receptor, sequence (P30556 whole entry): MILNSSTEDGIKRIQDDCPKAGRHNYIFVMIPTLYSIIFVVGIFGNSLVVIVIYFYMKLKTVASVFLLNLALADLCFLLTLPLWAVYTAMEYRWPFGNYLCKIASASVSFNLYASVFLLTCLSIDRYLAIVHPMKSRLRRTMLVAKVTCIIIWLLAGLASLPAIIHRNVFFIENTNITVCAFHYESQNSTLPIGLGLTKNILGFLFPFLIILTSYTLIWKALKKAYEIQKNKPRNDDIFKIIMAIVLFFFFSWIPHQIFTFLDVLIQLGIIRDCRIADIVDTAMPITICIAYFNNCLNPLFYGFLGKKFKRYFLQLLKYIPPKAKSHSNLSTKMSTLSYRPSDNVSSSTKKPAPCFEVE

| SMILES | IC50 [nM] |
| --- | --- |
| CCCc1c(Cc2ccc(-c3ccccc3-c3noc(=O)[nH]3)cc2F)c(=O)n([C@H]2CC[C@H](OC(C)C(C)(C)O)CC2)c2ncnn12 (single isomer, unassigned) [Example 248, 6-{[3-fluoro-2′-(5-oxo-4,5-dihydro-1,2,4-oxadiazol-3-yl)biphenyl-4-yl]methyl}-4-[trans-4-(2-hydroxy-1,2-dimethylpropoxy)cyclohexyl]-7-propyl[1,2,4]triazolo[1,5-a]pyrimidin-5(4H)-one] | 2.2 |
| CCCc1c(Cc2ccc(-c3ccccc3-c3nc(=O)o[nH]3)cc2)c(=O)n(C2CCC(OCC(C)O)CC2)c2ccnn12 (single isomer, unassigned) [Example 440, 4-[trans-4-(2-hydroxypropoxy)cyclohexyl]-6-{[2′-(5-oxo-4,5-dihydro-1,2,4-oxadiazol-3-yl)biphenyl-4-yl]methyl}-7-propylpyrazolo[1,5-a]pyrimidin-5(4H)-one (Optically Active Form, Retention Time: Short)] | 1.8 |
| CCCc1c(Cc2ccc(-c3ccccc3-c3noc(=O)[nH]3)cc2)c(=O)n(C2CCC(OCC(C)O)CC2)c2ccnn12 (single isomer, unassigned) [Example 441, 4-[trans-4-(2-hydroxypropoxy)cyclohexyl]-6-{[2′-(5-oxo-4,5-dihydro-1,2,4-oxadiazol-3-yl)biphenyl-4-yl]methyl}-7-propylpyrazolo[1,5-a]pyrimidin-5(4H)-one (Optically Active Form, Retention Time: Long)] | 1.6 |

Biological target: human PPARγ (Homo sapiens (Human), UniProt P37231)
Sequence (P37231 29-505): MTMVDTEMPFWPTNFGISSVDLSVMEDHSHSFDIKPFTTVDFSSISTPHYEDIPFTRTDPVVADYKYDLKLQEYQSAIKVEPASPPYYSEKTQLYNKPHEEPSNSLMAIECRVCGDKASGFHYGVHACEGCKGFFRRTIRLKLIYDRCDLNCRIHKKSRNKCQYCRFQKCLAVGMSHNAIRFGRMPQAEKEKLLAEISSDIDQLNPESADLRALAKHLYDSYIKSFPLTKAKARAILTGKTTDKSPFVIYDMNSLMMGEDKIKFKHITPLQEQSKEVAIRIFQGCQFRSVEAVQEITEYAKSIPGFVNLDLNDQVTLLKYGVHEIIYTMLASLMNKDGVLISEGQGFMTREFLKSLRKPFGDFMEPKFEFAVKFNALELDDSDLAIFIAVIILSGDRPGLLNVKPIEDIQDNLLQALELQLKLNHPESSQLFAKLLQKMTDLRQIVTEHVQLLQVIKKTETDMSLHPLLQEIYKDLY
Sequence (P19793 whole entry partner): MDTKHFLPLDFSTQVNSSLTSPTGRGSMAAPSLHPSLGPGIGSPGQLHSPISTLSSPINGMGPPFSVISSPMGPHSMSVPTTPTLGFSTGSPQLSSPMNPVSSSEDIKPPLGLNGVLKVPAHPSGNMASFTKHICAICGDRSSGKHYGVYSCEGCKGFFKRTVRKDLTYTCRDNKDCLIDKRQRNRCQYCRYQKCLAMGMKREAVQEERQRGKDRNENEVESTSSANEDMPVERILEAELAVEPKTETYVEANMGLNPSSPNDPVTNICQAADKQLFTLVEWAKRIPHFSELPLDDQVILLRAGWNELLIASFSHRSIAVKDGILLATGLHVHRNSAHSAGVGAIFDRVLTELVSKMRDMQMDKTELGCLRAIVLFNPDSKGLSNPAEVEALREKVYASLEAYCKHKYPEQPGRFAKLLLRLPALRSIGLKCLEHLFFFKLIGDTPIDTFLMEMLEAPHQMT
Assay: PPARγ agonistic activity: luciferase reporter assay in PPARγ:RXRα:4ERPP/CHO-K1 cells
Type: cell-based
Conditions: CHO-K1, test compound 10^−6 M; control compound X (1 μM) taken as 100%
Text: Evaluation of PPARγ Agonistic Activity
(5) Introduction of Human PPARγ- and RXRα-Expression Plasmid and Reporter Plasmid into Cho-K1 Cell as Well as Establishment of Expressed Cell
A CHO-K1 cell cultured in a 150 cm^2 cell culture flask [manufactured by Corning Costar Corporation, USA] comprising Ham's F12 medium [manufactured by INVITROGEN, USA] supplemented with 10% fetal bovine serum [manufactured by INVITROGEN, USA] was taken off by treating with 0.5 g/L trypsin-0.2 g/L EDTA (ethylenediamine tetraacetate) [manufactured by Life Technologies, Inc., USA], and then the cell was washed with PBS (Phosphate-buffered saline) [manufactured by INVITROGEN, USA], centrifuged (1000 rpm, 5 minutes) and suspended in PBS. Subsequently, DNA was introduced into the cell under the conditions shown below using GENE PULSER [manufactured by Bio-Rad Laboratories, USA].
Namely, to a cuvette having a 0.4 cm gap were added 8×10^6 cells and 10 μg of plasmid pVgRXR2-hPPARγ obtained in the above-mentioned (4) and 10 μg of reporter plasmid pGL3-4ERPP-TK neo obtained in the above-mentioned (3), which was subjected to electroporation at the voltage of 0.25 kV under the capacitance of 960 μF. Subsequently, the cell was transferred into a F12 medium comprising 10% fetal bovine serum and cultured for 24 hours, and then the cell was taken off again and centrifuged. Then, the pellet was suspended in Ham's F12 medium comprising 10% fetal bovine serum supplemented with 500 μg/ml of Geneticin [manufactured by INVITROGEN, USA] and 250 μg/ml of Zeocin [manufactured by INVITROGEN, USA]. The obtained suspension was diluted to the density of 10^4 cells/ml and inoculated in a 96-well plate [manufactured by Corning Costar Corporation, USA], which was cultured in a CO2 gas incubator at 37° C., whereby obtaining a Geneticin- and Zeocin-resistant transformant.
Subsequently, after the transformed cell line thus obtained was cultured in a 24-well plate [manufactured by Corning Costar Corporation, USA], a cell line in which expression of the luciferase was induced, i.e., PPARγ:RXRα:4ERPP/CHO-K1 cell was selected by the addition of 10 μM pioglitazone hydrochloride.
(6) Evaluation of PPARγ Agonistic Activity
PPARγ:RXRα:4ERPP/CHO-K1 cells obtained in the above-mentioned (5) were cultured in F12 medium [manufactured by INVITROGEN, USA] containing 10% fetal bovine serum [manufactured by MOREGATE, Australia], seeded in a 96 well half-area white plate [manufactured by Corning Coster Corporation, USA] at 5×10^3 cells/well, and cultured in a CO2 incubator at 37° C. overnight.
Then, the medium was removed from the 96 well half-area white plate, hamF12 medium containing 0.1% fatty acid-free bovine serum albumin (BSA) (45 μl) and a test compound (5 μl) were added, and the mixture was cultured in the CO2 incubator at 37° C. for 1 day. After removing the medium, Picagene 7.5 [manufactured by Dai Nippon Inki, Japan] (20 μl) diluted 2-fold with HBSS (HANKS' BALANCED SALT SOLUTION) [manufactured by BIO […], USA] was added, and the mixture was stirred. Using 1420 ARVO Multilabel Counter [manufactured by PerkinElmer, USA], luciferase activity was measured.
The percentage (%) was calculated from the luciferase activity of the test compound when the luciferase activity of the control compound (compound X: 5-[3-(4-{[2-(2-furyl)-5-methyl-1,3-oxazol-4-yl]methoxy}-3-methoxyphenyl)propyl]-1,3-oxazolidine-2,4-dione) (1 μM) was taken as 100% and the luciferase activity of the test compound non-administration group was taken as 0%.

| SMILES | activation at 1 µM [%] |
| --- | --- |
| CCCc1c(Cc2ccc(-c3ccccc3-c3noc(=O)[nH]3)cc2)c(=O)n([C@H]2CC[C@H](OC(C)C(C)(C)O)CC2)c2ncnn12 (single isomer, unassigned) [Example 318, 4-[trans-4-(2-hydroxy-1,2-dimethylpropoxy)cyclohexyl]-6-{[2′-(5-oxo-4,5-dihydro-1,2,4-oxadiazol-3-yl)biphenyl-4-yl]methyl}-7-propyl[1,2,4]triazolo[1,5-a]pyrimidin-5(4H)-one (Retention Time: Short)] | 17 |
| CCCc1c(Cc2ccc(-c3ccccc3-c3noc(=O)[nH]3)cc2F)c(=O)n([C@H]2CC[C@H](OC(C)C(C)(C)O)CC2)c2ncnn12 (single isomer, unassigned; (+)) [Example 247, (+)-6-{[3-fluoro-2′-(5-oxo-4,5-dihydro-1,2,4-oxadiazol-3-yl)biphenyl-4-yl]methyl}-4-[trans-4-(2-hydroxy-1,2-dimethylpropoxy)cyclohexyl]-7-propyl[1,2,4]triazolo[1,5-a]pyrimidin-5(4H)-one] | 17 |

Same assay, conditions: test compound 10^−6 M; control compound X (1 μM) taken as 100%

| SMILES | PPARγ agonistic activity (activation % (10^−6 M)) [%] |
| --- | --- |
| CCCc1c(Cc2ccc(-c3ccccc3-c3noc(=O)[nH]3)cc2F)c(=O)n([C@H]2CC[C@H](OC(C)C(C)(C)O)CC2)c2ncnn12 (single isomer, unassigned) [Example 248, 6-{[3-fluoro-2′-(5-oxo-4,5-dihydro-1,2,4-oxadiazol-3-yl)biphenyl-4-yl]methyl}-4-[trans-4-(2-hydroxy-1,2-dimethylpropoxy)cyclohexyl]-7-propyl[1,2,4]triazolo[1,5-a]pyrimidin-5(4H)-one] | 19 |
| CCCc1c(Cc2ccc(-c3ccccc3-c3noc(=O)[nH]3)cc2)c(=O)n([C@H]2CC[C@H](OC(C)C(C)(C)O)CC2)c2ncnn12 (single isomer, unassigned) [Example 319, 4-[trans-4-(2-hydroxy-1,2-dimethylpropoxy)cyclohexyl]-6-{[2′-(5-oxo-4,5-dihydro-1,2,4-oxadiazol-3-yl)biphenyl-4-yl]methyl}-7-propyl[1,2,4]triazolo[1,5-a]pyrimidin-5(4H)-one (Retention Time: Long)] | 16 |
| CCCc1c(Cc2ccc(-c3ccccc3-c3noc(=O)[nH]3)cc2)c(=O)n(C2CCC(OCC(C)O)CC2)c2ccnn12 (single isomer, unassigned) [Example 441, 4-[trans-4-(2-hydroxypropoxy)cyclohexyl]-6-{[2′-(5-oxo-4,5-dihydro-1,2,4-oxadiazol-3-yl)biphenyl-4-yl]methyl}-7-propylpyrazolo[1,5-a]pyrimidin-5(4H)-one (Optically Active Form, Retention Time: Long)] | 19 |
| CCCCc1c(Cc2ccc(-c3ccccc3-c3noc(=O)[nH]3)cc2)c(=O)n(C2CCOC(C)C2)c2ncnn12 (stereo not drawn) [Example 160, 7-butyl-4-(2-methyltetrahydro-2H-pyran-4-yl)-6-{[2′-(5-oxo-4,5-dihydro-1,2,4-oxadiazol-3-yl)biphenyl-4-yl]methyl}[1,2,4]triazolo[1,5-a]pyrimidin-5(4H)-one] | 26 |
| CCCCc1c(Cc2ccc(-c3ccccc3-c3noc(=O)[nH]3)cc2)c(=O)n(C2CCOC(C)C2)c2ncnn12 (stereo not drawn) [Example 161, 7-butyl-4-(2-methyltetrahydro-2H-pyran-4-yl)-6-{[2′-(5-oxo-4,5-dihydro-1,2,4-oxadiazol-3-yl)biphenyl-4-yl]methyl}[1,2,4]triazolo[1,5-a]pyrimidin-5(4H)-one] | 47 |
| CCCc1c(Cc2ccc(-c3ccccc3-c3noc(=O)[nH]3)cc2)c(=O)n([C@H]2CC[C@H](OC(C)C(C)(C)O)CC2)c2ncnn12 (stereo partly drawn) [Example 300, 4-[trans-4-(2-hydroxy-1,2-dimethylpropoxy)cyclohexyl]-6-{[2′-(5-oxo-4,5-dihydro-1,2,4-oxadiazol-3-yl)biphenyl-4-yl]methyl}-7-propyl[1,2,4]triazolo[1,5-a]pyrimidin-5(4H)-one] | 16 |

Tested on: Male SHRs
Assay: Antihypertensive effect: mean blood pressure in SHRs after oral administration
Type: in vivo, rat
Conditions: SHR, dose 3 mg/kg, during 24 hours after administration
Protocol: Male SHRs (28-40 weeks old, Japan SLC, Inc., Japan) were anesthetized with sodium pentobarbital (50 mg/kg, i.p.). The left femoral artery was cannulated with a polyethylene catheter filled with saline comprising heparin (200 U/mL). The catheter was exteriorized at the back of the neck and each SHR was individually housed in a cage and left two or four days to recover. The mean blood pressure (MBP) was obtained from the systemic blood pressure which was monitored from the femoral artery using a pressure transducer connected to a polygraph system (Nihon Kohden Corporation). The heart rate was measured from the blood pressure pulse intervals. The rats which had MBP over 150 mmHg were used for the experiment. When the blood pressure had stabilized, vehicle (0.5 w/v % methylcellulose) or compounds were orally administered. All compounds were suspended in 0.5 w/v % methylcellulose and orally administered at a volume of 2 mL/kg. The MBP was measured during 24 hours after the administration.

| SMILES | Maximum MBP reduction (mmHg) |
| --- | --- |
| CCCc1c(Cc2ccc(-c3ccccc3C3=NOC(O)N3)cc2F)c(=O)n(C2CCC(OC(C)C(C)(C)O)CC2)c2ncnn12.[K+] (single isomer, unassigned; (-)) [Example 459, (−)-6-{[3-fluoro-2′-(5-oxo-4,5-dihydro-1,2,4-oxadiazol-3-yl)biphenyl-4-yl]methyl}-4-[trans-4-(2-hydroxy-1,2-dimethylpropoxy)cyclohexyl]-7-propyl[1,2,4]triazolo[1,5-a]pyrimidin-5(4H)-one potassium salt (Retention Time: Long)] | 64 |
